Patent US11358950B2, “SMAC mimetics used as IAP inhibitors and use thereof” (CHIA TAI TIANQING PHARMACEUTICAL GROUP CO., LTD., priority 2017, dated 2022)

Assays:
[1] = biological target: T1, XIAP BIR3 (Homo sapiens, UniProt P98170); test: Binding experiment of XIAP BIR3 (fluorescence polarization); conditions: 30 nM XIAP BIR3, 5 nM probe ARPFAQ-K(5-FAM)-NH2, 60 min
T1 construct: covering amino acids 255 to 356; GST; His; purchased RBC APT-11-374; host or cells: E. coli
Protocol: (§1) Buffer system for the test (a buffer for cIAP1 BIR3 or XIAP BIR3): 100 mM potassium phosphate, pH 7.5; 0.1% BSA; 0.005% Triton X-100; and 1% dimethyl sulfoxide.
(§2) Probe: ARPFAQ-K(5-FAM)-NH2.
XIAP-BIR3-his: RBC Cat #APT-11-374, the BIR3 domain of XIAP (covering amino acids 255 to 356; XIAP BIR3), as a GST-fusion protein expressed and purified from E. coli.
(§3) Reaction conditions: 5 nM ARPFAQ-K(5-FAM)-NH2, 20 nM cIAP1 BIR3 and 30 nM XIAP BIR3.
(§4) First, a fresh buffer for cIAP1 BIR3 or XIAP BIR3 was prepared, a cIAP1 BIR3 or XIAP BIR3 solution (2-fold diluted) was added thereto, and then a compound to be tested which had been dissolved in 100% DMSO was added into the buffer solution containing cIAP1 BIR3 or XIAP BIR3 by an acoustic technique. Thereafter, the probe (2-fold diluted) was added, and the resultant was mixed and incubated in the dark at room temperature for 60 minutes. The fluorescence polarization was measured and the mP value was calculated. Finally, the IC50 value was obtained.

[2] = tested on: MDA-MB-231 cells; test: In-vitro cell viability test (CellTiter-Glo, 7 days); type: cell-based; conditions: Homo sapiens, 168 h, 7 days incubation
Protocol: RPMI 1640 medium (Invitrogen-22400089); fetal bovine serum (Invitrogen-10099141); Trypsin, 0.05% (1×) with EDTA 4Na (Invitrogen-25300062); luminescent cell viability assay kit (Promega-G7573); Dulbecco's phosphate buffered saline (HyClone-SH30028.01B); and 384-well plate (Corning-6007680). Envision Multi-label Analyzer.
1. 30 μL of MDA-MB-231 cell suspension, which contained 250 MDA-MB-231 cells, was added into the wells of a 384-microwell plate.
2. 20 μL of a test compound (the test compounds were formulated at a high concentration of 10 μM, the test compounds were subjected to a 5-fold gradient dilution, and each compound was diluted to 10 concentration gradients) was added, and then the cell plate was put back into a carbon dioxide incubator to be incubated for 7 days.
3. The cell plate was kept flat at room temperature for 30 minutes.
4. 20 μL of a Promega CellTiter-Glo reagent was added into each well of the cell plate.
5. After 10 minutes, the Envision Multi-label Analyzer was used for data reading.

[3] = biological target: T2, cIAP1 BIR3 (Homo sapiens, UniProt Q13490); test: Binding experiment of cIAP1 BIR3 (fluorescence polarization); conditions: 20 nM cIAP1 BIR3, 5 nM probe ARPFAQ-K(5-FAM)-NH2, 60 min
T2 construct: covering amino acids 258 to 363; GST; His; purchased RBC APT-11-370; host or cells: E. coli
Protocol: as §1, §2
cIAP1-BIR3-his: RBC Cat #APT-11-370, the BIR3 domain of human cIAP1 (covering amino acids 258 to 363; cIAP1 BIR3), as a GST-fusion protein expressed and purified from E. coli.
as §3, §4

T1 sequence (P98170 255-356): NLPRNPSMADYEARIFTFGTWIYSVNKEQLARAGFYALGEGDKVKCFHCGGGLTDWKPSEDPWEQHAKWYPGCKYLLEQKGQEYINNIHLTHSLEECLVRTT
T2 sequence (Q13490 258-363): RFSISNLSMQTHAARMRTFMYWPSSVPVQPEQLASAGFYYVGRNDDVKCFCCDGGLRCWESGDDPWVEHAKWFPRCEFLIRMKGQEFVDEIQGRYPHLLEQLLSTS

IC50 [1] [nM]	IC50 [2] [nM]	IC50 [3] [nM]	Structure (SMILES)
97	220	2.6	CN[C@@H](C)C(=O)N[C@H](C(=O)N1CCC[C@H]1Cn1cc(C(C)=O)c2c(Cl)cccc21)C1CCCCC1 [Example 4]
95.9	75	2.6	CN[C@@H](C)C(=O)N[C@H](C(=O)N1CCC[C@H]1Cn1cc(C(C)=O)c2ccc(Cl)cc21)C1CCCCC1 [Example 5]
9.3	497	58.3	CN[C@@H](C)C(=O)N[C@H](C(=O)N1CCC[C@H]1Cn1cc(C(C)=O)c2cccc(Cl)c21)C1CCCCC1 [Example 6]
45	16.6	4.9	CN[C@@H](C)C(=O)N[C@H](C(=O)N1CCC[C@H]1Cn1cc(C(C)=O)c2cc(Br)ccc21)C1CCCCC1 [Example 7]
40.3	75	5.6	CN[C@@H](C)C(=O)N[C@H](C(=O)N1CCC[C@H]1Cn1cc(C(C)=O)c2cc(Cl)c(Cl)cc21)C1CCCCC1 [Example 8]
20	26	5.7	CN[C@@H](C)C(=O)N[C@H](C(=O)N1CCC[C@H]1Cn1cc(C(C)=O)c2cc(Cl)c(F)cc21)C1CCCCC1 [Example 9]
27.2	32.4	4.5	CN[C@@H](C)C(=O)N[C@H](C(=O)N1CCC[C@H]1Cn1cc(C(C)=O)c2c(F)c(Cl)ccc21)C1CCCCC1 [Example 10]
49.9	57.7	6.2	CN[C@@H](C)C(=O)N[C@H](C(=O)N1CCC[C@H]1Cn1nc(C(C)=O)c2cc(Cl)ccc21)C1CCCCC1 [Example 14]
258	93	4	CN[C@@H](C)C(=O)N[C@H](C(=O)N1CCC[C@H]1Cn1nc(C(C)=O)c2cc(F)ccc21)C1CCCCC1 [Example 15]
80.7	79	1.9	CN[C@@H](C)C(=O)N[C@H](C(=O)N1CCC[C@H]1Cn1cc(C#N)c2cc(F)ccc21)C1CCCCC1 [Example 17]
42.5	22.5	5.1	CN[C@@H](C)C(=O)N[C@H](C(=O)N1CCC[C@H]1Cn1cc(C#N)c2cc(Cl)ccc21)C1CCCCC1 [Example 18]
129	43.1	4.6	CN[C@@H](C)C(=O)N[C@H](C(=O)N1CCC[C@H]1Cn1nc(C#N)c2cc(Cl)ccc21)C1CCCCC1 [Example 19]
53.9	75	1.1	CN[C@@H](C)C(=O)N[C@H](C(=O)N1CCC[C@H]1Cn1cc(S(C)(=O)=O)c2cc(F)ccc21)C1CCCCC1 [Example 20]
37.4	16.4	4.2	CN[C@@H](C)C(=O)N[C@H](C(=O)N1CCC[C@H]1Cn1cc(S(C)(=O)=O)c2cc(Cl)ccc21)C1CCCCC1 [Example 21]
42	85	3	CN[C@@H](C)C(=O)N[C@H](C(=O)N1CCC[C@H]1Cn1cc(C(N)=O)c2cc(F)ccc21)C1CCCCC1 [Example 22]
19.2	73	4.1	CN[C@@H](C)C(=O)N[C@H](C(=O)N1CCC[C@H]1Cn1cc(C(=O)C(C)C)c2cc(Cl)ccc21)C1CCCCC1 [Example 24]
60	181	1.1	CN[C@@H](C)C(=O)N[C@H](C(=O)N1CCC[C@H]1Cn1cc(-c2ccnn2C)c2cc(F)ccc21)C1CCCCC1 [Example 26]
46.4	282	4.4	CN[C@@H](C)C(=O)N[C@H](C(=O)N1CCC[C@H]1Cn1cc(-c2ccnn2C)c2cc(Cl)ccc21)C1CCCCC1 [Example 27]
27.3	36.7	5.2	CN[C@@H](C)C(=O)N[C@H](C(=O)N1CCC[C@H]1Cn1cc(N2CCCC2=O)c2cc(Cl)ccc21)C1CCCCC1 [Example 28]
31.4	134	6.1	CN[C@@H](C)C(=O)N[C@H](C(=O)N1CCC[C@H]1Cn1cc(N2CCN(C)C2=O)c2cc(Cl)ccc21)C1CCCCC1 [Example 29]
21.6	47.6	4.4	CN[C@@H](C)C(=O)N[C@H](C(=O)N1CCC[C@H]1Cn1cc(N2CCOC2=O)c2cc(Cl)ccc21)C1CCCCC1 [Example 30]

Structure (SMILES)	IC50 [1] [nM]	IC50 [2] [nM]	IC50 [3] [nM]
CN[C@@H](C)C(=O)N[C@H](C(=O)N1CCC[C@H]1Cn1cc(C(C)=O)c2cc(F)ccc21)C1CCCCC1 [Example 1]	74.7	70	3.7
CN[C@@H](C)C(=O)N[C@H](C(=O)N1CCC[C@H]1Cn1cc(C(C)=O)c2cc(C(F)(F)F)ccc21)C1CCCCC1 [Example 3]	18.1	16	1
CN[C@@H](C)C(=O)N[C@H](C(=O)N1CCC[C@H]1Cn1cc(C(C)=O)c2cc(OC(F)(F)F)ccc21)C1CCCCC1 [Example 11]	139	74.8	5.2
CN[C@@H](C)C(=O)N[C@H](C(=O)N1CCC[C@H]1Cn1c(C)c(C(C)=O)c2cc(Cl)ccc21)C1CCCCC1 [Example 13]	30.6	44.3	5
CN[C@@H](C)C(=O)N[C@H](C(=O)N1CCC[C@H]1Cn1cc(C(C)=O)c2cc(Cl)cnc21)C1CCCCC1 [Example 16]	346	109	8.4
CN[C@@H](C)C(=O)N[C@H](C(=O)N1CCC[C@H]1Cn1cc(C(=O)N(C)C)c2cc(Cl)ccc21)C1CCCCC1 [Example 23]	21.3	45.2	4.6
CN[C@@H](C)C(=O)N[C@H](C(=O)N1CCC[C@H]1Cn1cc(-c2ccccc2C)c2cc(F)ccc21)C1CCCCC1 [Example 25]	208	1150	6.8
CN[C@@H](C)C(=O)N[C@H](C(=O)N1C[C@@H](Oc2ccccc2)C[C@H]1Cn1cc(C(C)=O)c2cc(F)ccc21)C1CCCCC1 [Example 31]	49.1	1460	3.7
